25 molecules from US10449258B2, “Antibody drug conjugate, intermediate, preparation method, pharmaceutical composition and uses thereof” (XDCEXPLORER (SHANGHAI) CO., LTD., priority 2015, dated 2019) can be followed below.

Read-outs that look alike come from different tables or passages of the source.

The test system of series [1] is Her2-positive human BT474 breast tumor cells. Description: Cytotoxicity assay (growth inhibition, CellTiter-Glo) on BT474. As for the experimental part:
(§1) Her2-positive human BT474 breast tumor cells (BT474 for short), Her2 low expression human MCF-7 breast tumor cells (MCF-7 for short), and human breast tumor cell strain MCF7-Her2 with stable-transfected Her2 outside MCF-7 (MCF-7-Her2 for short) were used (they were prepared by the methods disclosed in the literatures for preparing recombinant cells: Teemu T. Junttila, et al., Breast. Cancer Res. Treat., 2011, 128, 347 and Jeffrey J. Wallin et al., Clin. Cancer Res., 2012, 18, 3901, the contents of which are incorporated herein by reference in their entireties). The growth inhibition of tumor cells by T-CE-040 and T-CE-063 antibody drug conjugates were evaluated. BT474, MCF7-Her2 and MCF-7 were digested with 0.25% (v/v) trypsin and the cells were stripped and then suspended in 100 μL complete medium. 2,000 cells were inoculated in a 96-well plate and cultured, grew adherently overnight at 37° C., then 100 μL T-CE-040 and T-CE-063 antibody drug conjugates with different concentration gradients and the complete medium were added. After 120 hours, relative cell proliferation analysis was performed by adding 50 μL CellTiter-Glo® […] Cell Activation Reagent (CellTiter-GloB Luminescent, Promega).

Series [2] relates to Her2 low expression human MCF-7 breast tumor cells. Description: Cytotoxicity assay (growth inhibition, CellTiter-Glo) on MCF-7. As for the experimental part:
as §1
In general terms: ATP-based viability assays read luminescence as a measure of living cells.

Series [3] relates to human breast tumor cell strain MCF7-Her2 with stable-transfected Her2. Description: Cytotoxicity assay (growth inhibition, CellTiter-Glo) on MCF7-Her2. As for the experimental part:
as §1

The mark [4] stands for this setting: Homo sapiens, BT-474, 120 h, read-out: Cytotoxicity assay IC50 BT474, BT474 cells, 120 hours, CellTiter-Glo.
Where [5] appears, read: Homo sapiens, MCF7, 120 h, read-out: Cytotoxicity assay IC50 MCF7, MCF-7 cells, 120 hours, CellTiter-Glo.
[6] abbreviates: Homo sapiens, 120 h, read-out: Cytotoxicity assay IC50 MCF-Her2, MCF7-Her2 cells, 120 hours, CellTiter-Glo.
Setting [7] is: read-out: Cytotoxicity assay IC50 BT474, BT474 cells, 120 hours, CellTiter-Glo.
Where [8] appears, read: read-out: Cytotoxicity assay IC50 MCF7, MCF-7 cells, 120 hours, CellTiter-Glo.
Setting [9] is: read-out: Cytotoxicity assay IC50 MCF-Her2, MCF7-Her2 cells, 120 hours, CellTiter-Glo.

For orientation: IC50 means the concentration at which inhibition is half-maximal. For `COc1cc2cc(c1Cl)N(C)C(=O)C[C@H](OC(=O)[C@H](C)N(C)[C@@H](CCSSC)C(F)(F)F)[C@]1(C)O[C@H]1[C@H](C)[C@@H]1C[C@@](O)(NC(=O)O1)[C@H](OC)/C=C/C=C(\C)C2` (single isomer, unassigned) [CE-029], the IC50 in series [1] (setting [4]) worked out at 0.85 nM; in series [2] (setting [5]), 2 nM; in series [3] (setting [6]) it was 1.7 nM.
Take `COc1cc2cc(c1Cl)N(C)C(=O)C[C@H](OC(=O)[C@H](C)N(C)[C@H](CCSSC)C(F)(F)F)[C@]1(C)O[C@H]1[C@H](C)[C@@H]1C[C@@](O)(NC(=O)O1)[C@H](OC)/C=C/C=C(\C)C2` (single isomer, unassigned) [CE-030]: the concentration for half-maximal inhibition (IC50) in series [1] (setting [4]) came to 2.4 nM; in series [2] (setting [5]), 6.2 nM; in series [3] (setting [6]), 3.2 nM.
In the case of `COc1cc2cc(c1Cl)N(C)C(=O)C[C@H](OC(=O)C(COCCCSSC)OC)[C@]1(C)O[C@H]1[C@H](C)C1C[C@@](O)(NC(=O)O1)[C@H](OC)/C=C/C=C(\C)C2` (single isomer, unassigned) [CE-054-1], the IC50 was 10 nM in series [1] (setting [4]), 7 nM in series [2] (setting [5]) and 3.4 nM in series [3] (setting [6]).
Take `COc1cc2cc(c1Cl)N(C)C(=O)C[C@H](OC(=O)C(COCCCSSC)OC)[C@]1(C)O[C@H]1[C@H](C)C1C[C@@](O)(NC(=O)O1)[C@H](OC)/C=C/C=C(\C)C2` (single isomer, unassigned) [CE-055-1]: the values for the IC50 in series [1] (setting [7]), in series [2] (setting [8]) and in series [3] (setting [9]) were 8 nM, 6 nM and 3 nM, respectively.
Consider `COc1cc2cc(c1Cl)N(C)C(=O)C[C@H](OC(=O)[C@H](C)N(C)C(CCSSC)C(F)(F)F)[C@]1(C)O[C@H]1[C@H](C)[C@@H]1C[C@@](O)(NC(=O)O1)[C@H](OC)/C=C/C=C(\C)C2` (stereo partly drawn) [CE-011], for which the IC50 in series [1] (setting [4]) came out at 1.2 nM; in series [2] (setting [5]), 2.4 nM; in series [3] (setting [6]), 1.5 nM.
For `COCC(C)(CCC(=O)N(C)[C@H](C)C(=O)OC1CC(=O)N(C)c2cc(cc(OC)c2Cl)C/C(C)=C/C=C/[C@@H](OC)[C@@]2(O)C[C@H](OC(=O)N2)[C@@H](C)[C@@H]2O[C@@]12C)SSC` (stereo partly drawn) [CE-012], in that order: 16.4 nM, 65.8 nM and 133 nM.
`COCC(C)(CCC(=O)N(C)[C@@H](C)C(=O)O[C@H]1CC(=O)N(C)c2cc(cc(OC)c2Cl)C/C(C)=C/C=C/[C@@H](OC)[C@@]2(O)C[C@H](OC(=O)N2)[C@@H](C)[C@@H]2O[C@@]12C)SSC` (stereo partly drawn) [CE-013]: the figures for the IC50 in series [1] (setting [7]), in series [2] (setting [5]) and in series [3] (setting [6]) were 21 nM, 4.3 nM and 5.9 nM, respectively.
With `COCC(C)(CCC(=O)N(C)[C@H](C)C(=O)OC1CC(=O)N(C)c2cc(cc(OC)c2Cl)C/C(C)=C/C=C/[C@@H](OC)[C@@]2(O)C[C@H](OC(=O)N2)[C@@H](C)[C@@H]2O[C@@]12C)SSC` (stereo partly drawn) [CE-014], the IC50 in series [1] (setting [4]) amounted to 19.6 nM; in series [2] (setting [5]), 127 nM; in series [3] (setting [6]), 68.8 nM.
Consider `COCC(C)(CCC(=O)N(C)[C@@H](C)C(=O)O[C@H]1CC(=O)N(C)c2cc(cc(OC)c2Cl)C/C(C)=C/C=C/[C@@H](OC)[C@@]2(O)C[C@H](OC(=O)N2)[C@@H](C)[C@@H]2O[C@@]12C)SSC` (stereo partly drawn) [CE-015], for which the IC50 in series [1] (setting [7]) was 6.3 nM; in series [2] (setting [8]) it was 3 nM; in series [3] (setting [9]) it was 7.1 nM.
Regarding `COCC(CCC(=O)N(C)[C@H](C)C(=O)OC1CC(=O)N(C)c2cc(cc(OC)c2Cl)C/C(C)=C/C=C/[C@@H](OC)[C@@]2(O)C[C@H](OC(=O)N2)[C@@H](C)[C@@H]2O[C@@]12C)(COC)SSC` (stereo partly drawn) [CE-016], the IC50 in series [1] (setting [4]) came out at 23.4 nM; in series [2] (setting [5]), 67.7 nM; in series [3] (setting [6]), 42.7 nM.
For `COCC(CCC(=O)N(C)[C@@H](C)C(=O)OC1CC(=O)N(C)c2cc(cc(OC)c2Cl)C/C(C)=C/C=C/[C@@H](OC)[C@@]2(O)C[C@H](OC(=O)N2)[C@@H](C)[C@@H]2O[C@@]12C)(COC)SSC` (stereo partly drawn) [CE-017], in that order: 14 nM, 8.9 nM and 3.1 nM.
Take `COc1cc2cc(c1Cl)N(C)C(=O)CC(OC(=O)[C@@H](C)N(C)C(=O)CCC(C)(C#N)SSC)[C@]1(C)O[C@H]1[C@H](C)[C@@H]1C[C@@](O)(NC(=O)O1)[C@H](OC)/C=C/C=C(\C)C2` (stereo partly drawn) [CE-018]: the IC50 was found to be 41.7 nM in series [1] (setting [4]), 1570 nM in series [2] (setting [5]) and 399 nM in series [3] (setting [6]).
For `COc1cc2cc(c1Cl)N(C)C(=O)C[C@H](OC(=O)[C@H](C)N(C)C(=O)CCC(C)(C#N)SSC)[C@]1(C)O[C@H]1[C@H](C)[C@@H]1C[C@@](O)(NC(=O)O1)[C@H](OC)/C=C/C=C(\C)C2` (stereo partly drawn) [CE-019] the same measures were 64 nM, 150 nM and 57 nM.
For `COc1cc2cc(c1Cl)N(C)C(=O)CC(OC(=O)[C@@H](C)N(C)C(=O)CCC(SSC)C(C)C)[C@]1(C)O[C@H]1[C@H](C)[C@@H]1C[C@@](O)(NC(=O)O1)[C@H](OC)/C=C/C=C(\C)C2` (stereo partly drawn) [CE-021], in that order: 63.9 nM, 98.6 nM and 92.9 nM.
For `COc1cc2cc(c1Cl)N(C)C(=O)CC(OC(=O)[C@H](C)N(C)C(=O)CCC(SSC)C(C)C)[C@]1(C)O[C@H]1[C@H](C)[C@@H]1C[C@@](O)(NC(=O)O1)[C@H](OC)/C=C/C=C(\C)C2` (stereo partly drawn) [CE-022], in that order: 13 nM, 10 nM and 6 nM.
With `COCC(S)(CCC(=O)N(C)[C@H](C)C(=O)OC1CC(=O)N(C)c2cc(cc(OC)c2Cl)C/C(C)=C/C=C/[C@@H](OC)[C@@]2(O)C[C@H](OC(=O)N2)[C@@H](C)[C@@H]2O[C@@]12C)COC` (stereo partly drawn) [CE-023], the IC50 amounted to 308 nM in series [1] (setting [4]), 460 nM in series [2] (setting [5]) and 352 nM in series [3] (setting [6]).
Take `COCC(S)(CCC(=O)N(C)[C@@H](C)C(=O)OC1CC(=O)N(C)c2cc(cc(OC)c2Cl)C/C(C)=C/C=C/[C@@H](OC)[C@@]2(O)C[C@H](OC(=O)N2)[C@@H](C)[C@@H]2O[C@@]12C)COC` (stereo partly drawn) [CE-024]: the IC50 worked out at 20.1 nM in series [1] (setting [4]), 23.1 nM in series [2] (setting [5]) and 50 nM in series [3] (setting [6]).
With `COc1cc2cc(c1Cl)N(C)C(=O)C[C@H](OC(=O)[C@H](C)OCCSSC)[C@]1(C)O[C@H]1[C@H](C)[C@@H]1C[C@@](O)(NC(=O)O1)[C@H](OC)/C=C/C=C(\C)C2` [CE-026], the results for the IC50 in series [1] (setting [4]), in series [2] (setting [5]) and in series [3] (setting [6]) were 14 nM, 41 nM and 17 nM, respectively.
With `COc1cc2cc(c1Cl)N(C)C(=O)C[C@H](OC(=O)[C@H](C)OCCCSSC)[C@]1(C)O[C@H]1[C@H](C)[C@@H]1C[C@@](O)(NC(=O)O1)[C@H](OC)/C=C/C=C(\C)C2` [CE-027], the IC50 in series [1] (setting [4]) came to 15 nM; in series [2] (setting [5]), 39 nM; in series [3] (setting [6]), 23 nM.
For `COc1cc2cc(c1Cl)N(C)C(=O)C[C@H](OC(=O)[C@H](C)OCCOCCSSC)[C@]1(C)O[C@H]1[C@H](C)[C@@H]1C[C@@](O)(NC(=O)O1)[C@H](OC)/C=C/C=C(\C)C2` [CE-028], in that order: 12 nM, 41 nM and 33 nM.
For `COc1cc2cc(c1Cl)N(C)C(=O)C[C@H](OC(=O)[C@H]1CC[C@H](CSSC)CC1)[C@]1(C)O[C@H]1[C@H](C)[C@@H]1C[C@@](O)(NC(=O)O1)[C@H](OC)/C=C/C=C(\C)C2` [CE-031], in that order: 7.5 nM, 15 nM and 9.2 nM.
For `COc1cc2cc(c1Cl)N(C)C(=O)C[C@H](OC(=O)[C@H](C)OCCOCCSC1CC(=O)N(C[C@H]3CC[C@H](C(=O)ON4C(=O)CCC4=O)CC3)C1=O)[C@]1(C)O[C@H]1[C@H](C)C1C[C@@](O)(NC(=O)O1)[C@H](OC)/C=C/C=C(\C)C2` (stereo partly drawn) [CE-034] the same measures were 19.9 nM, 14.1 nM and 14.2 nM.
Turning to `COc1cc2cc(c1Cl)N(C)C(=O)C[C@H](OC(=O)[C@H](C)OCCCSC1CC(=O)N(C[C@H]3CC[C@H](C(=O)ON4C(=O)CCC4=O)CC3)C1=O)[C@]1(C)O[C@H]1[C@H](C)C1C[C@@](O)(NC(=O)O1)[C@H](OC)/C=C/C=C(\C)C2` (stereo partly drawn) [CE-035], the IC50 in series [1] (setting [7]) amounted to 26.8 nM; in series [2] (setting [8]), 25.8 nM; in series [3] (setting [9]) it was 15.1 nM.
Consider `COc1cc2cc(c1Cl)N(C)C(=O)C[C@H](OC(=O)[C@H]1CC[C@H](CSC3CC(=O)N(C[C@H]4CC[C@H](C(=O)ON5C(=O)CCC5=O)CC4)C3=O)CC1)[C@]1(C)O[C@H]1[C@H](C)C1C[C@@](O)(NC(=O)O1)[C@H](OC)/C=C/C=C(\C)C2` (stereo partly drawn) [CE-036], for which the IC50 was 8.05 nM in series [1] (setting [4]), 13.1 nM in series [2] (setting [5]) and 6.9 nM in series [3] (setting [6]).
With `COc1cc2cc(c1Cl)N(C)C(=O)C[C@H](OC(=O)[C@H](C)OCCSC1CC(=O)N(C[C@H]3CC[C@H](C(=O)ON4C(=O)CCC4=O)CC3)C1=O)[C@]1(C)O[C@H]1[C@H](C)C1C[C@@](O)(NC(=O)O1)[C@H](OC)/C=C/C=C(\C)C2` (stereo partly drawn) [CE-037], the results for the IC50 in series [1] (setting [4]), in series [2] (setting [5]) and in series [3] (setting [6]) were 49.3 nM, 136 nM and 70.6 nM, respectively.
